Data taken from PMC10781691, “Vertical pathway inhibition of receptor tyrosine kinases and BAD with synergistic efficacy in triple negative breast cancer” (NPJ Precision Oncology, 2024).

Key:
[1] = test system: MDA-MB-231 cells; test: Annexin V-PI apoptosis flow cytometry; conditions: MDA-MB-231, 5 μM
Description: (§1) Representative flow cytometry plots of Annexin-V and propidium iodide (PI) stained apoptotic
(§2) or NPB using flow cytometry analysis. Annexin V-FITC staining is indicated on the x axis, and PI staining is indicated on the y axis. The lower left quadrants represent live cells, the lower right quadrants represent early apoptotic cells, the upper left quadrants represent necrotic cells, and the upper right quadrants display late apoptotic cells. Acquisition of Annexin V and PI data are presented as a percentage (%) in each quadrant. Early apoptotic cells are referred to as Annexin- V positive and late apoptotic cells are referred to as Annexin-V and PI double positive.

[2] = test system: BT549 cells; test: Annexin V-PI apoptosis flow cytometry; conditions: BT549, 5 μM
Description: as §1, §2

[3] = test system: VEGFR2; conditions: read-out: potency on VEGFR2; cited from earlier work
[4] = Phase I, cited from earlier work

Structure (SMILES)	induction of apoptosis (early and late) [1]	induction of apoptosis (early and late) [2]	IC50 [3] [nM]	MTD, BID ([4]; ref NCT00513851) [mg]	MTD, QD ([4]; ref NCT00513851) [mg]	MTD of OSI-930 BID with 150 mg erlotinib QD ([4]; ref NCT00603356) [mg]
Oc1ccccc1C(c1cccnc1)N1CCN(c2cccc(Cl)c2Cl)CC1 (stereo not drawn) [NCK, 2-((4-(2,3-dichlorophenyl)piperazin-1-yl)(pyridin-3-yl)methyl) phenol]	more potent effect than NPB in inducing apoptosis	more potent effect than NPB in inducing apoptosis				
O=C(Nc1ccc(OC(F)(F)F)cc1)c1sccc1NCc1ccnc2ccccc12 [OSI-930]			9	500	1600	200
